Blank lines part the entries; values can stand above or below the compound they belong to. Calls of active or inactive are those of the source.
How the values were obtained:
Keap1/Nrf2 = Keap1/Nrf2 (Homo sapiens, UniProt Q14145); assay: disruptors of Keap1 binding to Nrf2 peptide – biochemical, fluorescence polarization, cherry-picked samples, dose response (AID 588683)
SUMO E1/E2 = SUMO E1/E2 (Homo sapiens, UniProt P63279+Q9UBE0+Q9UBT2); assay: SAR analysis of SUMOylation using HTRF in an in-Vitro dose response assay. [Related pubchem assays (depositor defined):AID2006, AID2011, AID2018, AID2069, AID2658]; format: functional
Chain of SUMO E1/E2 (Q9UBE0 whole entry): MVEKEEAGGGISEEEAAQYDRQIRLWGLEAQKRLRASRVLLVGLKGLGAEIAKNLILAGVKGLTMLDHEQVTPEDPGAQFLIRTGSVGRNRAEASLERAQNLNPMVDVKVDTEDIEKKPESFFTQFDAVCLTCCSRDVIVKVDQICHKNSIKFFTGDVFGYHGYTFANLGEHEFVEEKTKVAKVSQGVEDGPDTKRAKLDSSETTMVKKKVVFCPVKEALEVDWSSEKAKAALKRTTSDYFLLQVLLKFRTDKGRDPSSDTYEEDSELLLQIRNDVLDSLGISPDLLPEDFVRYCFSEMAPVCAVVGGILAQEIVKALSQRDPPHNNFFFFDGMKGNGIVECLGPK
Chain of SUMO E1/E2 (Q9UBT2 whole entry): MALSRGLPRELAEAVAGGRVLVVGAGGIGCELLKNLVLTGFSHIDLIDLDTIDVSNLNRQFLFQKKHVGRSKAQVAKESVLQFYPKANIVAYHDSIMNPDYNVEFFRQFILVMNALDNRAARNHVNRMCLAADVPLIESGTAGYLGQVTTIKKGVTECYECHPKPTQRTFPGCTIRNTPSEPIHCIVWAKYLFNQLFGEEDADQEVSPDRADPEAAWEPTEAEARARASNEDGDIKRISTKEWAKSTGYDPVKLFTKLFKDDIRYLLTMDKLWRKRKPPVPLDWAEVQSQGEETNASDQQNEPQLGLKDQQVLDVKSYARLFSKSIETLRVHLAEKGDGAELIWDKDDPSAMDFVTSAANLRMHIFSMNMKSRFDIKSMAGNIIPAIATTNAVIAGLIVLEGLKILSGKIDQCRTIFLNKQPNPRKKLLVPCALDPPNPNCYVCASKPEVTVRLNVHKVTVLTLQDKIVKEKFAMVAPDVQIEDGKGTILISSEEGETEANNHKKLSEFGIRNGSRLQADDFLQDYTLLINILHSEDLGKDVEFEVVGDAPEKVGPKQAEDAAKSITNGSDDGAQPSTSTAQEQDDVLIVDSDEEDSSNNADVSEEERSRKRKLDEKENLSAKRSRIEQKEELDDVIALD
Chain of SUMO E1/E2 (P63279 whole entry): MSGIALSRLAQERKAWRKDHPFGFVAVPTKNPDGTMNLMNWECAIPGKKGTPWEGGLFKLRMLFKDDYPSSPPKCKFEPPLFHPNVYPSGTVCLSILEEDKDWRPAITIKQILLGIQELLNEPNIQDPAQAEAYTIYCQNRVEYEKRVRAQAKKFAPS

Beta Lactamase = Beta Lactamase (Pseudomonas aeruginosa, UniProt Q932Y6); assay: BLA reporter interference, concentration series – BLA reporter cells, FRET fluorescence, artefact control for TLR9-MyD88 binding inhibitor project, dose response (AID 588341); format: cell-based;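 note: cell based assay in CHO-K1 cells stably expressing beta-lactamase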
Chain of Beta Lactamase (Q932Y6 whole entry): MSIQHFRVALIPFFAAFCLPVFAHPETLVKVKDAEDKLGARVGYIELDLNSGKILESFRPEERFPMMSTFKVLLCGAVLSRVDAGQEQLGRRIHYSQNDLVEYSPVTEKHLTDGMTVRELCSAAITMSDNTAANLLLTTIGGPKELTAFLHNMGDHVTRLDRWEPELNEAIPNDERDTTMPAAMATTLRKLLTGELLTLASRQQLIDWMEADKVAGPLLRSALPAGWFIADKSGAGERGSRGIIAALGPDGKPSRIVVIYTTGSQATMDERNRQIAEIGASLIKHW

[1] = biological target: Glucose-6-phosphate 1-dehydrogenase (Homo sapiens, UniProt P11413); assay: inhibition of Homo sapiens G6PD, dose series – biochemical, fluorescence, selectivity assay for P. falciparum G6PD inhibitor project, dose response (AID 504792); format: functional
Chain of Glucose-6-phosphate 1-dehydrogenase (P11413 whole entry, the tested form may be a part): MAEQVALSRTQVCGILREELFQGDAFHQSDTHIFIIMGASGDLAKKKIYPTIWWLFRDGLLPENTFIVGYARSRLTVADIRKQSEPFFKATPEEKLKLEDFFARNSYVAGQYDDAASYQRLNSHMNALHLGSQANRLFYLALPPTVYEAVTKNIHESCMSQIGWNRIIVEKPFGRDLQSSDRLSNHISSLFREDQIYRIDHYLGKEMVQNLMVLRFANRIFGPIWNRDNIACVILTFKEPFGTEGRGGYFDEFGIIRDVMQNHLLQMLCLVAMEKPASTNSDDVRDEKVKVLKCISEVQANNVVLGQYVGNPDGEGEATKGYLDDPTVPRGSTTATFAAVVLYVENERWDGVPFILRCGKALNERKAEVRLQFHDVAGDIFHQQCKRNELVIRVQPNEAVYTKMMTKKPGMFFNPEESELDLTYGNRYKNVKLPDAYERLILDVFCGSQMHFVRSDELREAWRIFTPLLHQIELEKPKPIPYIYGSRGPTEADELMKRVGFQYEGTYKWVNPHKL

CHO = CHO cell viability loss, potency – luminescence, cytotoxicity control for TLR9-MyD88 binding inhibitor project, dose response (AID 588339); format: functional, cell-based, hamster; conditions: Cricetulus griseus;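 note: CHO cells stably coexpressing TLR9 and MyD88 fusions from primary screen; compound exposure lasted 48 hours before viability readout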
[2] = biological target: Heat shock protein HSP 90-alpha (Homo sapiens, UniProt P07900); format: functional, organism-based
[3] = biological target: DNA dC->dU-editing enzyme APOBEC-3G (Homo sapiens, UniProt Q9HC16); assay: Dose Response confirmation of small molecule APOBEC3G DNA Deaminase Inhibitors via a fluorescence-based single-stranded DNA deaminase assay. [Related pubchem assays (depositor defined):AID493012, AID493028]; format: functional
Chain of DNA dC->dU-editing enzyme APOBEC-3G (Q9HC16 whole entry): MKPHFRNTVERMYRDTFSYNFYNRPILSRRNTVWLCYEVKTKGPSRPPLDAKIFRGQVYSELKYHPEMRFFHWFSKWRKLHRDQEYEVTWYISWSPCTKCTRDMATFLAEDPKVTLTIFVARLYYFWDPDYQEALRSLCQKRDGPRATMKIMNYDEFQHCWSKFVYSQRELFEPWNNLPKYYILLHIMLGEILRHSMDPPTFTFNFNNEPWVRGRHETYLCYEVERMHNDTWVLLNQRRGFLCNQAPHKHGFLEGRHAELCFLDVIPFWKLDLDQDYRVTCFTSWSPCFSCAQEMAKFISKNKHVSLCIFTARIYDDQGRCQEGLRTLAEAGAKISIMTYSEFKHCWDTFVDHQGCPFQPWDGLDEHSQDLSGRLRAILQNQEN

Phosphomannomutase 2 = Phosphomannomutase 2 (Homo sapiens, UniProt O15305); assay: Counter screen SAR assay for PMM2 inhibitors via a fluorescence intensity assay. [Related pubchem assays (depositor defined):AID1545, AID1574]
Chain of Phosphomannomutase 2 (O15305 whole entry): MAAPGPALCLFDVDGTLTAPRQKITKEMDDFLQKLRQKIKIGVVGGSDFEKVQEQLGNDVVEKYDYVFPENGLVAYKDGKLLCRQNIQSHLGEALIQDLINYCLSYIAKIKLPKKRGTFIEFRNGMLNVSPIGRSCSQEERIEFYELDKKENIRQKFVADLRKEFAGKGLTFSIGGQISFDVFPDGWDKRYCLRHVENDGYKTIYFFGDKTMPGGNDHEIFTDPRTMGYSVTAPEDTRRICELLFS

[4] = biological target: DNA dC->dU-editing enzyme APOBEC-3A (Homo sapiens, UniProt P31941); assay: A3A deaminase inhibition for selectivity – biochemical, dose response (AID 504722); format: functional
Chain of DNA dC->dU-editing enzyme APOBEC-3A (P31941 whole entry): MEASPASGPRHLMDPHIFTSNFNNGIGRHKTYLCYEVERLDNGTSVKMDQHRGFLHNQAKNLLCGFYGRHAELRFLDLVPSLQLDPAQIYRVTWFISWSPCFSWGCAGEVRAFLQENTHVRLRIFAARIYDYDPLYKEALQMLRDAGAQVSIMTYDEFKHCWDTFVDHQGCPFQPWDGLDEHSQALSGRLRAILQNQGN

[5] = biological target: T1, Mannose-6-phosphate isomerase (Homo sapiens, UniProt P34949); assay: phosphomannose isomerase inhibition – biochemical, fluorescence intensity, confirmation (AID 1535)
T1 sequence (P34949 whole entry): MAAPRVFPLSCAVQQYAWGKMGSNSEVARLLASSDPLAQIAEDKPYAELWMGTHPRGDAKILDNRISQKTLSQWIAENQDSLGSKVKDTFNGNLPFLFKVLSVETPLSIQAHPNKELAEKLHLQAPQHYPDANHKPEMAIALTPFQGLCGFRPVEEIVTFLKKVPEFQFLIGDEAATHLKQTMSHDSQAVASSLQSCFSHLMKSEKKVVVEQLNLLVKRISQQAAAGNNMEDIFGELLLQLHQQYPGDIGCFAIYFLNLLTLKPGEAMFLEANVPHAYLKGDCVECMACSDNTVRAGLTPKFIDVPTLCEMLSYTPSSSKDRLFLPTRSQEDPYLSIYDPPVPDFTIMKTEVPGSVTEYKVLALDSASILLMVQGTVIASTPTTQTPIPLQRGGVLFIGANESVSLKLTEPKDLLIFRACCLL

[6] = biological target: T1, Mannose-6-phosphate isomerase; assay: MPI enzyme activity inhibition – biochemical, fluorescence intensity, coupled assay, primary screen (AID 1209)
[7] = biological target: Voltage-gated inwardly rectifying potassium channel KCNH2 (Homo sapiens, UniProt Q12809); conditions: Potency;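 note: confirmatory quantitative high-throughput screen measuring inhibition of hERG channel activity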
Chain of Voltage-gated inwardly rectifying potassium channel KCNH2 (Q12809 whole entry): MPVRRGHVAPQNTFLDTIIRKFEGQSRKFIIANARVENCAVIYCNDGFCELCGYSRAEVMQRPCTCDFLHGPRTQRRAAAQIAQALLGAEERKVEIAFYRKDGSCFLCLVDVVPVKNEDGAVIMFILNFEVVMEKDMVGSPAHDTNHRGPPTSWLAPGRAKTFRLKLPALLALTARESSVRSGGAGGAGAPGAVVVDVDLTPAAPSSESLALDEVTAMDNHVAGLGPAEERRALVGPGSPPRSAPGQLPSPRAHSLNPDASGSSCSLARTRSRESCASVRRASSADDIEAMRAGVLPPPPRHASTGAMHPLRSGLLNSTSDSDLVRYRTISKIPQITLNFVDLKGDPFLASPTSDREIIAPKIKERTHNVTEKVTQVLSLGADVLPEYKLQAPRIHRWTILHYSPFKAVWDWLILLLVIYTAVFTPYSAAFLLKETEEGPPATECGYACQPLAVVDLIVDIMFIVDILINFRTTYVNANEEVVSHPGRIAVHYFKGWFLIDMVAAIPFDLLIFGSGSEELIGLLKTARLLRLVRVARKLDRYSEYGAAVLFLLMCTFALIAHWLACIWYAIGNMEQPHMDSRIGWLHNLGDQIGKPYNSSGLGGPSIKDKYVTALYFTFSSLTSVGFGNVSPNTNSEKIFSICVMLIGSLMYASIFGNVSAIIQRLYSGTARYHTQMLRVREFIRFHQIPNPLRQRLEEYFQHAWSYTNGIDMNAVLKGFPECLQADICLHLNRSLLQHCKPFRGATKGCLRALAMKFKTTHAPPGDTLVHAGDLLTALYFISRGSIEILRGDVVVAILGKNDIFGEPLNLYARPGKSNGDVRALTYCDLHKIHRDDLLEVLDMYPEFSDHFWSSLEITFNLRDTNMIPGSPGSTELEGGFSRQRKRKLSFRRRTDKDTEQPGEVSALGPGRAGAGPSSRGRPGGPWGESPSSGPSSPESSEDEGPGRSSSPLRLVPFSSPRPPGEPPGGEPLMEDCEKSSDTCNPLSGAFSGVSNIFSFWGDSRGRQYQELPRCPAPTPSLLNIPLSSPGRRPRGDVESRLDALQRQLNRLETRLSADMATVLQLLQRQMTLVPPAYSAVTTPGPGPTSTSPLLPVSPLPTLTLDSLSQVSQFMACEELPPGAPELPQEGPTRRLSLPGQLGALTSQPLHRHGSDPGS

Cytochrome P450 2C9 = Cytochrome P450 2C9 (Homo sapiens, UniProt P11712)
Chain of Cytochrome P450 2C9 (P11712 whole entry): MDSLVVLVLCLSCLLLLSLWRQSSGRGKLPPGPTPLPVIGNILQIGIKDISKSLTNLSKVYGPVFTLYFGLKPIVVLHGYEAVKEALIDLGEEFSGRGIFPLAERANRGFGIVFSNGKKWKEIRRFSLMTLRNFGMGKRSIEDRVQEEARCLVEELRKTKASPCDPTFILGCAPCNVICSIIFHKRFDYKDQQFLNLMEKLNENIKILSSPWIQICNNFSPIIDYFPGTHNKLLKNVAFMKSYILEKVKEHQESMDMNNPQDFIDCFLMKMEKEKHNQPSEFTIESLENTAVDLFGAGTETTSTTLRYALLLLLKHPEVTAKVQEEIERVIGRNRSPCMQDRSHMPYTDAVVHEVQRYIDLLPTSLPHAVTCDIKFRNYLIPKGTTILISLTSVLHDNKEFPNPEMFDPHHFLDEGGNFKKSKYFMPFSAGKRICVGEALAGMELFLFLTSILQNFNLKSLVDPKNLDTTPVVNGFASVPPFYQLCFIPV

Cytochrome P450 1A2 = biological target: T2, Cytochrome P450 1A2 (Homo sapiens, UniProt P05177);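 note: PubChem cytochrome P450 panel assay, CYP1A2 panel member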
T2 sequence (P05177 whole entry): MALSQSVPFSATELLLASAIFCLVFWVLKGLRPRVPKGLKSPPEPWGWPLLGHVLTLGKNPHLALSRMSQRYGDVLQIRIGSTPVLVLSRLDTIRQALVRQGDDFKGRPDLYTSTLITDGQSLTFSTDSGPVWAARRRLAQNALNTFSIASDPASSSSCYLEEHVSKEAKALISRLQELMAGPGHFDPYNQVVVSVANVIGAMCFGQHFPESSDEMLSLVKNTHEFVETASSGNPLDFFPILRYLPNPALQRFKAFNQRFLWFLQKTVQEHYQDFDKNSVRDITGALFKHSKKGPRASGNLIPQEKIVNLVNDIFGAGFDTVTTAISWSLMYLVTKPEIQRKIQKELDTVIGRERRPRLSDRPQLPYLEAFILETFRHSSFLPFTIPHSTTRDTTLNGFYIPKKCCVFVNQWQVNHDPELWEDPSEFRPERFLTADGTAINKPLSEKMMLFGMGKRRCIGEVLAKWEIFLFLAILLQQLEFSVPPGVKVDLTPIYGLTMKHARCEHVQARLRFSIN

SMILES: O=C1C=CC(=O)N1CCCCCCCCCCN1C(=O)C=CC1=O
IC50 (Beta Lactamase): 16.3 µM (inactive)
IC50 [1]: > 80 µM (inactive)
IC50 (CHO): 1.82 µM (active)
AC50 [2]: 1.49 µM (active)

SMILES: CCSc1nnc(S)s1
IC50 [3]: 7.81 µM (active)
IC50 (Phosphomannomutase 2): > 100 µM (inactive)
IC50 [4]: > 100 µM (inactive)
IC50 [5]: 44.2 µM (active)
IC50 [6]: 49.7 µM (active)

SMILES: O=C(O)c1cc(O)c2ccc(Cl)cc2n1 [7-CHLOROKYNURENIC ACID]
AC50 [7]: 6.31 µM (inconclusive)
AC50 (Cytochrome P450 2C9): inconclusive
AC50 (Cytochrome P450 1A2): inconclusive

Now from value to compound:

AC50 (Keap1/Nrf2): > 52 µM (inactive)
SMILES: CC(C)N1CC=C2C(C#N)=C(N)C(C#N)(C#N)C(c3ccccc3)C2C1 (centres undefined)

IC50 (SUMO E1/E2): > 100 µM (inactive)
SMILES: O=C(O)c1ccc2c(c1)C1C=CCC1C(c1ccc(F)cc1)N2 (centres undefined)

Source: ChEMBL document CHEMBL1201862, “PubChem BioAssay data set” (2004)
